≈ marks a conversion by molar mass, not a printed value.
How the values were obtained:
Plasmodium falciparum [1] = assay: Antiplasmodial activity after 36 hrs against chloroquine-resistant Plasmodium falciparum W2 in human erythrocytes by [3H]hypoxanthine uptake; type: functional, organism-based
Plasmodium falciparum [2] = assay: Antiplasmodial activity after 36 hrs against chloroquine-sensitive Plasmodium falciparum FCA 20 in human erythrocytes by [3H]hypoxanthine uptake; type: functional, organism-based

C/C=C1/CN2CCc3c([nH]c4ccccc34)[C@@H]2C[C@@H]1Cc1nccc2c1[nH]c1ccccc12 [USAMBARENSINE]
IC50 (Plasmodium falciparum [1]): 0.265 µg/mL (≈ 0.613 µM) | IC50 (Plasmodium falciparum [2]): 0.655 µg/mL (≈ 1.51 µM)

C/C=C1\CN2CCc3c([nH]c4ccccc34)[C@@H]2C[C@@H]1Cc1nccc2c1[nH]c1ccc(O)cc12
IC50 (Plasmodium falciparum [1]): 0.16 µg/mL (≈ 0.357 µM) | IC50 (Plasmodium falciparum [2]): 0.48 µg/mL (≈ 1.07 µM)

C/C=C1/CN2CCc3c([nH]c4ccccc34)[C@@H]2C[C@@H]1Cc1nccc2c1[nH]c1ccc(O)cc12
IC50 (Plasmodium falciparum [1]): 0.122 µg/mL (≈ 0.272 µM) | IC50 (Plasmodium falciparum [2]): 0.113 µg/mL (≈ 0.252 µM)

Source: ChEMBL document CHEMBL1141829, “10'-Hydroxyusambarensine, a new antimalarial bisindole alkaloid from the roots of Strychnos usambarensis” (J Nat Prod, 1999)
